≈ marks a conversion by molar mass, not a printed value.
How the values were obtained:
[1] = tested on: B. cereus ATCC 11778; assay: MIC, twofold serial agar dilution; format: cell-based; conditions: Bacillus cereus, ATCC11778, 18 h, 35 °C, read-out: minimal inhibitory concentrations (MIC)
[2] = in vitro; conditions: cattle (Bos taurus)
[3] = tested on: M. luteus ATCC 9341; assay: MIC, twofold serial agar dilution; format: cell-based; conditions: Micrococcus luteus, ATCC9341, 18 h, 35 °C, read-out: minimal inhibitory concentrations (MIC)
[4] = biological target: S. aureus DNA gyrase (Staphylococcus aureus, UniProt P0A0K8+P20831); assay: S. aureus DNA gyrase supercoiling assay; format: biochemical
Sequence of S. aureus DNA gyrase (P0A0K8 whole entry): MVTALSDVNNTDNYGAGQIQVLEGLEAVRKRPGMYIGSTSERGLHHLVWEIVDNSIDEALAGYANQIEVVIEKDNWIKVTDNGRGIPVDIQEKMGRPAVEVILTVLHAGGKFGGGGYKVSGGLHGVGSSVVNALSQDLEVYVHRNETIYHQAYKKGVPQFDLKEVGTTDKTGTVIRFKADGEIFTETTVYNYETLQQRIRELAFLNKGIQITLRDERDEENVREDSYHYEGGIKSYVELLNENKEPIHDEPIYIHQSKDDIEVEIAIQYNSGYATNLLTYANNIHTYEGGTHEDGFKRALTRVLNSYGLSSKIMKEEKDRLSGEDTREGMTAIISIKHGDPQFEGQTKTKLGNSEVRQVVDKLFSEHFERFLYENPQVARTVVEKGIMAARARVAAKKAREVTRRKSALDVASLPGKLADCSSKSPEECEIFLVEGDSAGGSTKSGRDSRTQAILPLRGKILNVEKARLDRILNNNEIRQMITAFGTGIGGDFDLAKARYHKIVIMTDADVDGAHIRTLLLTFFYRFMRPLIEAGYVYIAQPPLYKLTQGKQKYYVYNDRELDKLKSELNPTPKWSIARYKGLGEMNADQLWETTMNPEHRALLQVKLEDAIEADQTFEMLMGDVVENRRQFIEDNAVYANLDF
Sequence of S. aureus DNA gyrase (P20831 whole entry): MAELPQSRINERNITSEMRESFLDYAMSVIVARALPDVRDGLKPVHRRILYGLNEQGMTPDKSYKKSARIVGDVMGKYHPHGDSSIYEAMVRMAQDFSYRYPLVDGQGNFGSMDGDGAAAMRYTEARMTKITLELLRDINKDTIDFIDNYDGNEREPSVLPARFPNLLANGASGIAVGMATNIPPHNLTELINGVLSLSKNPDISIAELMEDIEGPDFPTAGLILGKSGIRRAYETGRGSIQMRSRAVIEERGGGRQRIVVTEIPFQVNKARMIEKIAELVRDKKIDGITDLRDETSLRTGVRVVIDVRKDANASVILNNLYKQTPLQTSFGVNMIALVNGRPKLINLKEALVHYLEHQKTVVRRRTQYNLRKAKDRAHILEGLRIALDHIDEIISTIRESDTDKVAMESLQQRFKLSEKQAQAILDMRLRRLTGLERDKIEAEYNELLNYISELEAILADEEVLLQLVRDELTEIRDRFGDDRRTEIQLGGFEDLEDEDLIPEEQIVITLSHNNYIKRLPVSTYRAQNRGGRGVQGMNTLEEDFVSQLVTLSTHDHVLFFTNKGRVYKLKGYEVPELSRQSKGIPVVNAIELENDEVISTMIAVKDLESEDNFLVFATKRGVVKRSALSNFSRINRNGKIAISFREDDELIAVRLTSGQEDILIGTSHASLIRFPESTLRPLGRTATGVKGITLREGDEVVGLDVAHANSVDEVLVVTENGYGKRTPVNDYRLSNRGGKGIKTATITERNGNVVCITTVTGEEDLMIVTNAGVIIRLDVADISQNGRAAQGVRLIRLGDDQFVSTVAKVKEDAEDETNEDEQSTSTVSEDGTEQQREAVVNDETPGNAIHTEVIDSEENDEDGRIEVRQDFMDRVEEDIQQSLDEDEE

[5] = tested on: B. subtilis ATCC 6633; assay: MIC, twofold serial agar dilution; format: cell-based; conditions: Bacillus subtilis, ATCC6633, 18 h, 35 °C, read-out: minimal inhibitory concentrations (MIC)
[6] = tested on: Sb-1; assay: microbe, parasite or virus in culture; format: cell-based, poliovirus type-1; conditions: Enterovirus C, Vero 76, read-out: Sb-1 EC50
[7] = tested on: S. aureus ATCC 25923; assay: disc diffusion method; format: cell-based, Staphylococcus aureus; conditions: Staphylococcus aureus, ATCC25923, applied 400 µg per disc, dash = lack of the growth inhibition area, read-out: diameter of growth inhibitory zone (GIZ)
[8] = tested on: S. aureus ATCC 29213; assay: MIC, twofold serial agar dilution; format: cell-based; conditions: Staphylococcus aureus, ATCC29213, 18 h, 35 °C, read-out: minimal inhibitory concentrations (MIC)
[9] = tested on: S. epidermidis ATCC 12228; assay: MIC, twofold serial agar dilution; format: cell-based; conditions: Staphylococcus epidermidis, ATCC12228, 18 h, 35 °C, read-out: minimal inhibitory concentrations (MIC)
[10] = tested on: M. luteus ATCC 10240; assay: disc diffusion method; format: cell-based, Micrococcus luteus; conditions: Micrococcus luteus, ATCC10240, applied 400 µg per disc, dash = lack of the growth inhibition area, read-out: diameter of growth inhibitory zone (GIZ)
[11] = tested on: Reo-1; assay: microbe, parasite or virus in culture; format: cell-based, reovirus type-1; conditions: Reovirus sp., BHK, read-out: Reo-1 EC50
[12] = tested on: S. epidermidis (MRSE); assay: MIC against hospital strains; conditions: Staphylococcus epidermidis
[13] = in vitro; conditions: human
[14] = tested on: hospital methicillin-susceptible strains of S. aureus (MSSA); assay: MIC against hospital strains; conditions: Staphylococcus aureus
[15] = tested on: M. luteus ATCC 9341; assay: disc diffusion method; format: cell-based, Micrococcus luteus; conditions: Micrococcus luteus, ATCC9341, applied 400 µg per disc, dash = lack of the growth inhibition area, read-out: diameter of growth inhibitory zone (GIZ)
[16] = tested on: VSV; assay: microbe, parasite or virus in culture; format: cell-based; conditions: Vesicular stomatitis virus, Vero 76, read-out: VSV EC50
[17] = tested on: S. aureus ATCC 29213; assay: disc diffusion method; format: cell-based, Staphylococcus aureus; conditions: Staphylococcus aureus, ATCC29213, applied 400 µg per disc, dash = lack of the growth inhibition area, read-out: diameter of growth inhibitory zone (GIZ)
[18] = tested on: HSV-1; assay: microbe, parasite or virus in culture; format: cell-based, human herpes 1; conditions: Human alphaherpesvirus 1, Vero 76, read-out: HSV-1 EC50
[19] = in vitro; conditions: Syrian hamster (Mesocricetus auratus)
[20] = tested on: methicillin-resistant strains of S. aureus (MRSA); assay: MIC against hospital strains; conditions: Staphylococcus aureus
[21] = tested on: S. aureus ATCC 6538; assay: MIC, twofold serial agar dilution; format: cell-based; conditions: Staphylococcus aureus, ATCC6538, 18 h, 35 °C, read-out: minimal inhibitory concentrations (MIC)
[22] = tested on: S. aureus ATCC 6538; assay: disc diffusion method; format: cell-based, Staphylococcus aureus; conditions: Staphylococcus aureus, ATCC6538, applied 400 µg per disc, dash = lack of the growth inhibition area, read-out: diameter of growth inhibitory zone (GIZ)
[23] = tested on: HIV-1; assay: microbe, parasite or virus in culture; conditions: Human immunodeficiency virus 1, MT4, read-out: HIV-1 EC50
[24] = tested on: B. cereus ATCC 11778; assay: disc diffusion method; format: cell-based, Bacillus cereus; conditions: Bacillus cereus, ATCC11778, applied 400 µg per disc, dash = lack of the growth inhibition area, read-out: diameter of growth inhibitory zone (GIZ)
[25] = tested on: YFV; assay: microbe, parasite or virus in culture; format: cell-based; conditions: Yellow fever virus, BHK, read-out: YFV EC50
[26] = tested on: M. luteus ATCC 10240; assay: MIC, twofold serial agar dilution; format: cell-based; conditions: Micrococcus luteus, ATCC10240, 18 h, 35 °C, read-out: minimal inhibitory concentrations (MIC)
[27] = in vitro; conditions: African green monkey (Cercopithecus aethiops)
[28] = hospital S. epidermidis MRSE strain 430/11
[29] = hospital S. epidermidis MRSE strain 431/11
[30] = hospital S. epidermidis MRSE strain 432/11
[31] = hospital S. epidermidis MRSE strain 433/11
[32] = hospital S. epidermidis MRSE strain 434/11
[33] = hospital S. epidermidis MRSE strain 435/11
[34] = hospital S. epidermidis MRSE strain 436/11
[35] = hospital S. epidermidis MRSE strain 437/11
[36] = hospital S. epidermidis MRSE strain 438/11
[37] = hospital S. epidermidis MRSE strain 439/11
[38] = hospital S. aureus MSSA strain 440/11
[39] = hospital S. aureus MSSA strain 441/11
[40] = hospital S. aureus MSSA strain 442/11
[41] = hospital S. aureus MSSA strain 443/11
[42] = hospital S. aureus MSSA strain 444/11
[43] = hospital S. aureus MSSA strain 445/11
[44] = hospital S. aureus MSSA strain 446/11
[45] = hospital S. aureus MSSA strain 447/11
[46] = hospital S. aureus MSSA strain 448/11
[47] = hospital S. aureus MSSA strain 449/11
[48] = hospital S. aureus MRSA strain 389/10
[49] = hospital S. aureus MRSA strain 390/10
[50] = hospital S. aureus MRSA strain 391/10
[51] = hospital S. aureus MRSA strain 392/10
[52] = hospital S. aureus MRSA strain 393/10
[53] = hospital S. aureus MRSA strain 394/10
[54] = hospital S. aureus MRSA strain 399/10
[55] = hospital S. aureus MRSA strain 450/11
[56] = hospital S. aureus MRSA strain 451/11
[57] = hospital S. aureus MRSA strain 452/11

SMILES: S=C(NCCc1c[nH]c2ccccc12)Nc1ccc(Cl)c(Cl)c1 [Compound 6, 1-(2-(1H-indol-3-yl)ethyl)-3-(3,4-dichlorophenyl)thiourea]
- MIC [1]: 6.25 µg/mL (≈ 17.2 µM)
- CC50 [2]: 27 µM
- MIC [3]: 12.5 µg/mL (≈ 34.3 µM)
- IC50 ([4]; supercoiling of relaxed pBR322 DNA, 30 min, 37 °C, read-out: IC50 ± SEM, S. aureus DNA Gyrase (converted)): 199 µM
- MIC [5]: 12.5 µg/mL (≈ 34.3 µM)
- EC50 [6]: > 13 µM
- zone of inhibition at 400 µg/disc [7]: 15 mm
- MIC [8]: 6.25 µg/mL (≈ 17.2 µM)
- MIC [9]: 12.5 µg/mL (≈ 34.3 µM)
- zone of inhibition at 400 µg/disc [10]: 23 mm
- EC50 [11]: > 10 µM
- MIC [12, 28]: 6.25 µg/mL (≈ 17.2 µM)
- MIC [12, 29]: 6.25 µg/mL (≈ 17.2 µM)
- MIC [12, 30]: 6.25 µg/mL (≈ 17.2 µM)
- MIC [12, 31]: 6.25 µg/mL (≈ 17.2 µM)
- MIC [12, 32]: 12.5 µg/mL (≈ 34.3 µM)
- MIC [12, 33]: 6.25 µg/mL (≈ 17.2 µM)
- MIC [12, 34]: 6.25 µg/mL (≈ 17.2 µM)
- MIC [12, 35]: 6.25 µg/mL (≈ 17.2 µM)
- MIC [12, 36]: 6.25 µg/mL (≈ 17.2 µM)
- MIC [12, 37]: 6.25 µg/mL (≈ 17.2 µM)
- CC50 [13]: 45 µM
- MIC [14, 38]: 6.25 µg/mL (≈ 17.2 µM)
- MIC [14, 39]: 6.25 µg/mL (≈ 17.2 µM)
- MIC [14, 40]: 6.25 µg/mL (≈ 17.2 µM)
- MIC [14, 41]: 6.25 µg/mL (≈ 17.2 µM)
- MIC [14, 42]: 6.25 µg/mL (≈ 17.2 µM)
- MIC [14, 43]: 6.25 µg/mL (≈ 17.2 µM)
- MIC [14, 44]: 6.25 µg/mL (≈ 17.2 µM)
- MIC [14, 45]: 6.25 µg/mL (≈ 17.2 µM)
- MIC [14, 46]: 6.25 µg/mL (≈ 17.2 µM)
- MIC [14, 47]: 6.25 µg/mL (≈ 17.2 µM)
- zone of inhibition at 400 µg/disc [15]: 15 mm
- EC50 [16]: > 13 µM
- zone of inhibition at 400 µg/disc [17]: 15 mm
- EC50 [18]: > 13 µM
- melting point: 168 to 169 °C
- CC50 [19]: 10 µM
- MIC [20, 48]: 6.25 µg/mL (≈ 17.2 µM)
- MIC [20, 49]: 6.25 µg/mL (≈ 17.2 µM)
- MIC [20, 50]: 6.25 µg/mL (≈ 17.2 µM)
- MIC [20, 51]: 6.25 µg/mL (≈ 17.2 µM)
- MIC [20, 52]: 6.25 µg/mL (≈ 17.2 µM)
- MIC [20, 53]: 6.25 µg/mL (≈ 17.2 µM)
- MIC [20, 54]: 6.25 µg/mL (≈ 17.2 µM)
- MIC [20, 55]: 6.25 µg/mL (≈ 17.2 µM)
- MIC [20, 56]: 6.25 µg/mL (≈ 17.2 µM)
- MIC [20, 57]: 6.25 µg/mL (≈ 17.2 µM)
- MIC [21]: 12.5 µg/mL (≈ 34.3 µM)
- zone of inhibition at 400 µg/disc [22]: 16 mm
- EC50 [23]: > 45 µM
- zone of inhibition at 400 µg/disc [24]: 15 mm
- EC50 [25]: > 10 µM
- MIC [26]: 6.25 µg/mL (≈ 17.2 µM)
- CC50 [27]: 13 µM

SMILES: S=C(NCCc1c[nH]c2ccccc12)Nc1cccc(Cl)c1 [Compound 14, 1-(2-(1H-Indol-3-yl)ethyl)-3-(3-chlorophenyl)thiourea]
- MIC [1]: 25 µg/mL (≈ 75.8 µM)
- CC50 [2]: 32 µM
- MIC [3]: 200 µg/mL (≈ 606 µM)
- effect against DNA gyrase (in words) ([4]; data not shown): not significantly effective
- MIC [5]: 50 µg/mL (≈ 152 µM)
- EC50 [6]: > 32 µM
- zone of inhibition at 400 µg/disc [7]: 14 mm
- MIC [8]: 50 µg/mL (≈ 152 µM)
- MIC [9]: 50 µg/mL (≈ 152 µM)
- zone of inhibition at 400 µg/disc [10]: 20 mm
- EC50 [11]: > 6 µM
- MIC [12, 28]: 25 µg/mL (≈ 75.8 µM)
- MIC [12, 29]: 6.25 µg/mL (≈ 18.9 µM)
- MIC [12, 30]: 25 µg/mL (≈ 75.8 µM)
- MIC [12, 31]: 25 µg/mL (≈ 75.8 µM)
- MIC [12, 32]: 25 µg/mL (≈ 75.8 µM)
- MIC [12, 33]: 25 µg/mL (≈ 75.8 µM)
- MIC [12, 34]: 50 µg/mL (≈ 152 µM)
- MIC [12, 35]: 25 µg/mL (≈ 75.8 µM)
- MIC [12, 36]: 50 µg/mL (≈ 152 µM)
- MIC [12, 37]: 25 µg/mL (≈ 75.8 µM)
- CC50 [13]: 42 µM
- MIC [14, 38]: 25 µg/mL (≈ 75.8 µM)
- MIC [14, 39]: 25 µg/mL (≈ 75.8 µM)
- MIC [14, 40]: 25 µg/mL (≈ 75.8 µM)
- MIC [14, 41]: 25 µg/mL (≈ 75.8 µM)
- MIC [14, 42]: 12.5 µg/mL (≈ 37.9 µM)
- MIC [14, 43]: 25 µg/mL (≈ 75.8 µM)
- MIC [14, 44]: 25 µg/mL (≈ 75.8 µM)
- MIC [14, 45]: 25 µg/mL (≈ 75.8 µM)
- MIC [14, 46]: 25 µg/mL (≈ 75.8 µM)
- MIC [14, 47]: 25 µg/mL (≈ 75.8 µM)
- zone of inhibition at 400 µg/disc [15]: 12 mm
- EC50 [16]: > 32 µM
- zone of inhibition at 400 µg/disc [17]: 15 mm
- EC50 [18]: > 32 µM
- melting point: 169 to 171 °C
- CC50 [19]: 6 µM
- MIC [20, 48]: 25 µg/mL (≈ 75.8 µM)
- MIC [20, 49]: 25 µg/mL (≈ 75.8 µM)
- MIC [20, 50]: 25 µg/mL (≈ 75.8 µM)
- MIC [20, 51]: 25 µg/mL (≈ 75.8 µM)
- MIC [20, 52]: 25 µg/mL (≈ 75.8 µM)
- MIC [20, 53]: 25 µg/mL (≈ 75.8 µM)
- MIC [20, 54]: 25 µg/mL (≈ 75.8 µM)
- MIC [20, 55]: 25 µg/mL (≈ 75.8 µM)
- MIC [20, 56]: 25 µg/mL (≈ 75.8 µM)
- MIC [20, 57]: 25 µg/mL (≈ 75.8 µM)
- MIC [21]: 50 µg/mL (≈ 152 µM)
- zone of inhibition at 400 µg/disc [22]: 13 mm
- EC50 [23]: > 42 µM
- zone of inhibition at 400 µg/disc [24]: 15 mm
- EC50 [25]: > 6 µM
- MIC [26]: 12.5 µg/mL (≈ 37.9 µM)
- CC50 [27]: 32 µM

— paper PMC6222422, “Synthesis and Biological Evaluation of Novel Indole-Derived Thioureas” (Molecules : A Journal of Synthetic Chemistry and Natural …, 2018)
